The text below walks through data of US8450293B2, “Synthesis and characterization of C8 analogs of c-di-GMP” (Rutgers, The State University of New Jersey, priority 2010, dated 2013).

For series [1] the following is noted: similar concentrations; Zhang et al. 2004; cited from earlier work.
Series [2] is described as follows: NMR / 2D DOSY study of metal-dependent complex formation. As to conditions: NMR concentrations (26-31 mM). The format is physicochemical. The source says:
Three larger and three smaller resonances clustered near 6 ppm, from the H1′ were observed. Diffusion coefficients (D, m^2/s×10^−1), obtained from a separate 2D DOSY experiment on the same sample, are indicated in parentheses. […] (Zhang et al., J. Am. Chem. Soc. 2006, 128, 7015-7024; Zhao et al., Nucleosides Nucleotides Nucl. Acids 2009, 28, 352-378) Here, all three larger resonances have D=1.5, indicative of octamolecular complexes. The two farthest downfield of the three smaller resonances have D=1.7, indicative of tetramolecular complexes (the octamolecular having been already identified), and the remaining farthest upfield smaller resonance has D=3.5, indicative of a bimolecular structure. At 5° C., all three smaller resonances nearly disappear, leaving primarily the three larger ones. The octamolecular complexes are expected to be preferentially stabilized at lower temperatures. At 55° C., the three larger resonances all decrease, and only the farthest upfield of the smaller resonances increases, confirming it is the bimolecular structure. The higher order complexes are disrupted at higher temperatures, leaving the bimolecular structure dominant.
All NMR spectra were acquired on a Varian VNMRS 500 MHz spectrometer. Samples were 31 mM of 2, 27 mM of 3, 26 mM of […] of 5, and 26 mM of 6, each in 0.30 mL H2O containing 10% D2O. The pH of all samples was adjusted to 6.8, using either HCl or KOH/NaOH/LiOH, as appropriate. Each sample was heated to 75° C. for 10 minutes, then allowed to cool to room temperature before being transferred to the NMR tube. The ^1H and ^13C NMR spectra were referenced to sodium trimethylsilylpropylsulfonate in D2O, and the ^31P NMR spectra were referenced to 10% phosphoric acid in D2O. The 1D ^1H NMR spectra used frequency pre-saturation for water suppression. The DOSY spectra used a pre-saturation pulse for water suppression. The data were collected using a 2.5 second relaxation delay over an 8000 Hz spectral width, with 16 repetitions over 256 increments and a diffusion delay of 0.1 seconds. For the HMBC experiments, the ^1H spectra were acquired with 16 scans, with acquisition time and relaxation delay of 2 s and 1.5 s, respectively. To suppress water, ^1H pre-saturation was applied during the relaxation delay. The ^13C spectra were acquired with 1024 scans, with acquisition time and relaxation delay of 0.5 s and 1 s, respectively. For NOE enhancement and ^1H decoupling, ^1H WALTZ16 decoupling was applied during the entire experiment. ^1H-^13C HMBC 2D spectra were acquired using 2048 (t2) times 100 (t1) complex points with spectral widths of 8000 Hz (t2) and 10000 Hz (t1) and transformed to spectra with 2048 (D1) times 1024 (D2) real points after two times linear prediction in t1. The number of scans per each t1 increment was 128 and the relaxation delay for each scan was 1.5 s. To suppress water, ^1H pre-saturation was applied during the relaxation delay. The DEPT transfer delay for HMBC was chosen as ^2,3JHC=20 Hz (the multi-bond coupling constant) and ^1JHC (the one-bond coupling constant) was set as 140 Hz to suppress cross peaks contributed from the one-bond ^1H-^13C connectivity.

A short description of series [3]: Solubility in water (noted when preparing NMR samples). The format is physicochemical. Conditions: K+ salt sample for NMR; spectra obtained in 1:1 CH3OD:H2O instead. Here is the method: Portions of the ^1H NMR spectra of the K^+ salts of 4, 5, and 6 at 25° C. are shown in FIGS. 5B, 5C, and 5D, respectively. […] For 4, 5, and 6, the H1′/amino resonances display nearly identical diffusion constants of 3.7/3.5, 2.4/2.5, and 1.9/2.0, respectively. These resonances become larger at 5° C. and disappear completely at 55° C. In all three cases, ^1H spectra of the Na^+ salts closely resemble those of the K^+ salts.

Each structure is given as a SMILES string.

On to `Nc1nc2c(ncn2[C@@H]2O[C@@H]3COP(=O)(O)OC4[C@@H](COP(=O)(O)O[C@@H]3C2O)O[C@@H](n2cnc3c(=O)[nH]c(N)nc32)[C@H]4O)c(=O)[nH]1` (stereo partly shown) [compound 1, cyclic diguanosine monophosphate], for which, in series [1], the “hypochromic effect in UV melt” value was “pronounced hypochromism”.
As for `Nc1nc2c(nc(S)n2[C@@H]2O[C@@H]3COP(=O)(O)OC4C(O)[C@H](n5c(=S)[nH]c6c(=O)[nH]c(N)nc65)O[C@@H]4COP(=O)(O)OC3C2O)c(=O)[nH]1` (stereo partly shown) [compound 3, cyclo-8-thioguanosinylyl (3′→5′)-8′-thioguanosinylyl (3′→5′)], the “complex formed (self-association)” value in series [2] (K+ salt) and in series [2] (Na+ salt) was “primarily a syn bimolecular structure” each time.
For `Nc1nc2c(nc(-c3ccccc3)n2[C@@H]2O[C@@H]3COP(=O)(O)OC4C(O)[C@H](n5c(-c6ccccc6)nc6c(=O)[nH]c(N)nc65)O[C@@H]4COP(=O)(O)OC3C2O)c(=O)[nH]1` (stereo partly shown) [compound 5, cyclo-8-phenylguanosinylyl (3′→5′)-8′-phenylguanosinylyl (3′→5′)], the “complex formed (self-association)” value in series [2] (K+ salt) and in series [2] (Na+ salt) was “primarily a syn bimolecular structure” each time.
With `CSc1nc2c(=O)[nH]c(N)nc2n1[C@@H]1O[C@@H]2COP(=O)(O)OC3C(O)[C@H](n4c(SC)nc5c(=O)[nH]c(N)nc54)O[C@@H]3COP(=O)(O)OC2C1O` (stereo partly shown) [compound 4, cyclo-8-methylthioguanosinylyl (3′→5′)-8′-methylthioguanosinylyl (3′→5′)], the “complex formed (self-association)” value in series [2] (K+ salt) and in series [2] (Na+ salt) was “primarily a syn bimolecular structure” throughout.
Take `CC(=O)c1cccc(-c2nc3c(=O)[nH]c(N)nc3n2[C@@H]2O[C@@H]3COP(=O)(O)OC4C(O)[C@H](n5c(-c6cccc(C(C)=O)c6)nc6c(=O)[nH]c(N)nc65)O[C@@H]4COP(=O)(O)OC3C2O)c1` (stereo partly shown) [compound 6, cyclo-8-(3-acetylphenyl)-guanosinylyl(3′→5′)-8′-(3-acetylphenyl)-guanosinylyl(3′→5′)]: the solubility in water result in series [3] was “not soluble in water”. The “complex formed (self-association)” value in series [2] (K+ salt) and in series [2] (Na+ salt) was “primarily a syn bimolecular structure” in each case.
